Assay results reported in patent US20110104161A1, “COMBINATIONS VEGF(R) INHIBITORS AND HEPATOCYTE GROWTH FACTOR (C-MET) INHIBITORS FOR THE TREATMENT OF CANCER” (priority 2008, published 2011).

Assays:
[1] = test system: U-87 MG human glioblastoma tumor cells; test: U-87 MG glioblastoma subcutaneous xenograft tumor growth in nude mice (Example 2); format: in vivo
Method: U-87 MG human glioblastoma tumor cells (from ATCC) were expanded in culture, harvested and injected subcutaneously into 5-8 week old female nude mice (CD1 NU/NU, Charles River Laboratories) (n=10/group). Treatment began on day 14 (average tumor volume 200 mm^3) with a VEGFR inhibitor, AMG 706, by oral gavage (75 mg/kg/dose/once per day) or an HGF/SF:c-Met inhibitor, AMG 102 by intraperitoneal injection, (3 or 10 μg/dose/twice per week) or a combination of AMG 706 and AMG 102 at the same doses and schedules. Vehicle alone (acid water pH 2.0) and IgG2 isotype control antibody (30 μg/dose/twice per week) served as negative controls for the VEFGFR inhibitor and the HGF/SF:c-Met inhibitor, respectively. Progression of tumor growth was followed by three dimensional caliper measurements and recorded as a function of time. Initial statistical analysis was done by repeated measures analysis of variance (ANOVA), followed by Scheffé post hoc testing for multiple comparisons. […] The combination of AMG 706 and AMG 102 provided no additional benefit compared to AMG 102 monotherapy. Body weights were not negatively impacted by any treatment. Arrow and Rx denote start of dosing.

[2] = test system: 786-0 human renal cell adenocarcinoma cells; test: 786-0-S4 renal cell adenocarcinoma subcutaneous xenograft tumor growth in athymic nude mice (Example 7); format: in vivo; conditions: AMG 706 75 mpk/dose PO, Amgen Compound 3 100 mpk/dose PO, or combination, once daily; p≦0.0322 (AMG 706, combination), p=0.0519 (Amgen Compound 3)
Text: 786-0-S4 (786-0 human renal cell adenocarcinoma cells from ATCC that were passaged in vivo) were expanded in culture, harvested and injected subcutaneously into 9 week old female athymic nude mice (Harlan Sprague Dawley) (n=10/group). Administration of the VEGFR inhibitor, AMG 706 (75 mpk/dose, PO), or the c-Met inhibitor, Amgen Compound 3 (100 mpk/dose, PO), or a combination of AMG 706 (75 mpk/dose, PO) and Amgen Compound 3 (100 mpk/dose, PO) began on day 20 post tumor cell implantation. AMG 706 was subsequently administered once daily by oral gavage (75 mpk/dose) and Amgen Compound 3 was administered once daily by oral gavage (100 mpk/dose) for the duration of the experiment. Progression of tumor growth was assessed by three dimensional caliper measurements and recorded as a function of time. Statistical analysis was performed by repeated measures analysis of variance (RMANOVA) followed by Scheffe post hoc testing for multiple comparisons. Vehicles (Acid water (pH 2.2) and 2% HPMC 1% Tween 80) served as negative controls for AMG 706 and Amgen Compound 3, respectively. […] Body weights were not negatively impacted by any treatment. Arrow and Rx denote the start of dosing.

Molecule	tumor growth compared with vehicle control group ([1]; AMG 706 75 mg/kg once per day oral gavage)	tumor growth compared to the vehicle [2]	tumor growth compared to the isotype control group ([1]; AMG 102 3 or 10 μg per dose twice per week i.p., p<0.0005)
CC1(C)CNc2cc(NC(=O)c3cccnc3NCc3ccncc3)ccc21 [AMG 706, N-(2,3-dihydro-3,3-dimethyl-1H-indol-6-yl)-2-[(4-pyridinylmethyl)amino]-3-pyridinecarboxamide]	no significant effect on tumor growth	significantly inhibited tumor growth	
Cc1c(C(=O)Nc2ccc(Oc3ccnc(NC(=O)N4CCOCC4)c3)c(F)c2)c(=O)n(-c2ccccc2)n1C [Amgen Compound 3, N-(4-(4-(1,5-dimethyl-3-oxo-2-phenyl-2,3-dihydro-1H-pyrazole-4-carboxamido)-2-fluorophenoxy)pyridin-2-yl)morpholine-4-carboxamide]		did not significantly inhibit tumor growth	
AMG 102: anti-HGF/SF antibody, identified in US 2005/0118643 and WO 2005/017107 as antibody 2.12.1			significantly inhibited tumor growth
